pEC50: −log10 of the molar value. Read-outs that look alike come from different tables or passages of the source.

This test has as its system HBV. The test is described as follows: HBV inhibition assay in HepAD38 cells (extracellular HBV DNA by direct qPCR). Type of test: cell-based, Hepatitis B virus. The settings on record: 96 hours; for pEC50: 8-point dose-response curve, read-out: HBV inh EC50; for inhibition at 0.1 µM / Anti HBV Activity (conc μM): 0.1 μM.
[1] abbreviates: Hepatitis B virus, relative to non-treated reference, read-out: Anti HBV Activity (conc μM).
Setting [2] is: relative to non-treated reference.

Turning to `CCOC(=O)N1C[C@H]2NS(=O)(=O)c3cn(C)c(C(=O)Nc4cc(F)c(F)c(F)c4)c3OC[C@@]2(C)C1` (relative stereo) [Example E85, cis-ethyl 7,10a-dimethyl-8-((3,4,5-trifluorophenyl)carbamoyl)-3a,4,10,10a-tetrahydro-1H,7H-dipyrrolo[3,4-b:3′,4′-f][1,4,5]oxathiazocine-2(3H)-carboxylate 5,5-dioxide], the inhibition at 0.05 µM under setting [1] was over 50%.
On to `Cn1cc2c(c1C(=O)Nc1cc(F)c(F)c(F)c1)OCC1CN(c3ncc(F)cn3)CC1NS2(=O)=O` (stereo not drawn) [Example E75, cis-2-(5-fluoropyrimidin-2-yl)-7-methyl-N-(3,4,5-trifluorophenyl)-2,3,3a,4,10,10a-hexahydro-1H,7H-dipyrrolo[3,4-b:3′,4′-f][1,4,5]oxathiazocine-8-carboxamide 5,5-dioxide], for which the inhibition at 0.05 µM under setting [1] is over 50%. For the same compound, the pEC50 (Hepatitis B virus) was over 6.00.
In the case of `Cc1nnc(C(=O)N2CCC3COc4c(cn(C)c4C(=O)Nc4ccc(F)c(C)c4)S(=O)(=O)NC3C2)o1` (racemic) [Example E135, Cis-N-(4-fluoro-3-methylphenyl)-2-methyl-7-(5-methyl-1,3,4-oxadiazole-2-carbonyl)-5,5a,6,7,8,9,9a,10-octahydro-2H-pyrido[3,4-f]pyrrolo[3,4-b][1,4,5]oxathiazocine-1-carboxamide 4,4-dioxide], the negative logarithm of the EC50 (pEC50) (Hepatitis B virus) was over 6.00.
In the case of `Cc1cc(NC(=O)c2c3c(cn2C)S(=O)(=O)NC2CN(C(=O)C4(C)COC4)CCC2CO3)ccc1F` (racemic) [Example E141, Trans-N-(4-fluoro-3-methylphenyl)-2-methyl-7-(3-methyloxetane-3-carbonyl)-5,5a,6,7,8,9,9a,10-octahydro-2H-pyrido[3,4-f]pyrrolo[3,4-b][1,4,5]oxathiazocine-1-carboxamide 4,4-dioxide], the pEC50 was over 6.00.
Turning to `Cn1cc(C(=O)N2CC3COc4c(cn(C)c4C(=O)Nc4cc(F)c(F)c(F)c4)S(=O)(=O)NC3C2)cn1` (stereo not drawn) [Example E57, cis-7-methyl-2-(1-methyl-1H-pyrazole-4-carbonyl)-N-(3,4,5-trifluorophenyl)-2,3,3a,4,10,10a-hexahydro-1H,7H-dipyrrolo[3,4-b:3′,4′-f][1,4,5]oxathiazocine-8-carboxamide 5,5-dioxide], the inhibition at 0.1 µM under setting [1] is under 50%.
Turning to `Cn1cc2c(c1C(=O)Nc1cc(F)c(F)c(F)c1)OCC1CN(S(C)(=O)=O)CC1NS2(=O)=O` (racemic) [Example E19, cis-7-methyl-2-(methylsulfonyl)-N-(3,4,5-trifluorophenyl)-2,3,3a,4,10,10a-hexahydro-1H,7H-dipyrrolo[3,4-b:3′,4′-f][1,4,5]oxathiazocine-8-carboxamide 5,5-dioxide], the inhibition at 0.1 µM under setting [1] was over 50%. Further, the pEC50 (Hepatitis B virus) was over 6.00.
With `Cn1cc2c(c1C(=O)Nc1ccc(F)c(F)c1)OCC1CCCC1NS2(=O)=O` (single isomer, unassigned) [Example E35, N-(3,4-difluorophenyl)-2-methyl-5a,6,7,8,8a,9-hexahydro-2H,5H-cyclopenta[f]pyrrolo[3,4-b][1,4,5]oxathiazocine-1-carboxamide 4,4-dioxide (Chiral 5aS,8aR or 5aR,8aS - Stereochemistry unknown)], the pEC50 was over 6.00. Also, the “Anti HBV Activity (conc μM)” value under setting [2] is “A (0.1) (HBV inhibition greater than 50% at the concentration indicated in the table)”.
With `Cc1cc(NC(=O)c2c3c(cn2C)S(=O)(=O)NC2CN(c4ccnc(Cl)c4)CC2CO3)ccc1F` (stereo not drawn) [Example E76, cis-2-(2-chloropyridin-4-yl)-N-(4-fluoro-3-methylphenyl)-7-methyl-2,3,3a,4,10,10a-hexahydro-1H,7H-dipyrrolo[3,4-b:3′,4′-f][1,4,5]oxathiazocine-8-carboxamide 5,5-dioxide], the inhibition at 0.05 µM under setting [1] was over 50%. Besides, for the setting “Hepatitis B virus”, the pEC50 is over 6.00.
With “Ethyl 8-((3-chloro-4-fluorophenyl)carbamoyl)-7-methyl-3a,4,10,10a-tetrahydro-1H,7H-dipyrrolo[3,4-b:3′,4′-f][1,4,5]oxathiazocine-2(3H)-carboxylate 5,5-dioxide (3aS,10aS) [Example E42]”, the “Anti HBV Activity (conc μM)” value under setting [2] was “B (0.1) (HBV inhibition less than 50% at the concentration indicated in the table)”.
Take `Cc1nnc(N2CC3COc4c(cn(C)c4C(=O)Nc4cc(F)c(F)c(F)c4)S(=O)(=O)NC3C2)o1` (stereo not drawn) [Example E78, cis-7-methyl-2-(5-methyl-1,3,4-oxadiazol-2-yl)-N-(3,4,5-trifluorophenyl)-2,3,3a,4,10,10a-hexahydro-1H,7H-dipyrrolo[3,4-b:3′,4′-f][1,4,5]oxathiazocine-8-carboxamide 5,5-dioxide]: the inhibition at 0.05 µM under setting [1] is over 50%. For the same compound, the pEC50 (Hepatitis B virus) was over 6.00.
Turning to “ethyl 7-methyl-8-((3,4,5-trifluorophenyl)carbamoyl)-3a,4,10,10a-tetrahydro-1H,7H-dipyrrolo[3,4-b:3′,4′-f][1,4,5]oxathiazocine-2(3H)-carboxylate 5,5-dioxide (3aR,10aR) [Example E31]”, the “Anti HBV Activity (conc μM)” value under setting [2] is recorded as “B (0.1) (HBV inhibition less than 50% at the concentration indicated in the table)”.
As to `Cc1cc(NC(=O)c2c3c(cn2C)S(=O)(=O)NC2CN(C(=O)C4(C)COC4)CC2CO3)ccc1F` (stereo not drawn) [Example E66, cis-N-(4-fluoro-3-methylphenyl)-7-methyl-2-(3-methyloxetane-3-carbonyl)-2,3,3a,4,10,10a-hexahydro-1H,7H-dipyrrolo[3,4-b:3′,4′-f][1,4,5]oxathiazocine-8-carboxamide 5,5-dioxide], the pEC50 (Hepatitis B virus) was over 6.00.
On the same count and under the same terms, the value for `CCOC(=O)N1C[C@H]2C[C@@H]1COc1c(cn(C)c1C(=O)Nc1cc(F)c(F)c(F)c1)S(=O)(=O)N2` [Example E77, Ethyl (3R,6R)-10-methyl-9-((3,4,5-trifluorophenyl)carbamoyl)-3,4,6,7-tetrahydro-10H-3,6-methanopyrrolo[3,4-b][1,4,5,8]oxathiadiazecine-5(2H)-carboxylate 1,1-dioxide] was over 6.00; that for `Cc1nc(C(=O)N2C[C@H]3COc4c(cn(C)c4C(=O)Nc4ccc(F)c(C)c4)S(=O)(=O)N[C@H]3C2)co1` [Example E112, (3aR,10aR)—N-(4-fluoro-3-methylphenyl)-7-methyl-2-(2-methyloxazole-4-carbonyl)-2,3,3a,4,10,10a-hexahydro-1H,7H-dipyrrolo[3,4-b:3′,4′-f][1,4,5]oxathiazocine-8-carboxamide 5,5-dioxide] was over 6.00; that for `Cc1cc(NC(=O)c2c3c(cn2C)S(=O)(=O)NC2CN(C(=O)C4(C)CCCO4)CC2(C)CO3)ccc1F` (stereo not drawn) [Example E88, cis-N-(4-fluoro-3-methylphenyl)-7,10a-dimethyl-2-(2-methyltetrahydrofuran-2-carbonyl)-2,3,3a,4,10,10a-hexahydro-1H,7H-dipyrrolo[3,4-b:3′,4′-f][1,4,5]oxathiazocine-8-carboxamide 5,5-dioxide] was over 6.00.
For the compound `CCOC(=O)N1CC2COc3c(cn(C)c3C(=O)Nc3cc(F)c(F)c(F)c3)S(=O)(=O)NC2C1` (racemic) [Example E10, Cis-Ethyl 7-methyl-8-((3,4,5-trifluorophenyl)carbamoyl)-3a,4,10,10a-tetrahydro-1H,7H-dipyrrolo[3,4-b:3′,4′-f][1,4,5]oxathiazocine-2(3H)-carboxylate 5,5-dioxide], the inhibition at 0.5 µM (Hepatitis B virus, 0.5 μM, relative to non-treated reference, read-out: Anti HBV Activity (conc μM)) was over 50%. For the setting “Hepatitis B virus”, the pEC50 is over 6.00.

The values above are taken from patent publication US11504382B2, “Tricyclic inhibitors of Hepatitis B virus” (Antios Therapeutics, Inc., priority 2018, dated 2022).
